Read-outs that look alike come from different tables or passages of the source.
Legend:
[1] = test system: phosphorylated AKT Ser473 (pAKT S473), mTORC2 activity, PC3 cells; assay: mTOR target engagement assay, immunofluorescent cell-based, pAKT S473 readout (mTORC2 activity); settings: PC3 cells
Summary of the method: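 After blocking, cells were stained overnight at 4 °C with anti-pAKT S473 antibody, then a fluorescent secondary; inhibition was read as reduced fluorescence intensity.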

[2] = test system: phosphorylated 4E-BP1 Thr37/46 (p4E-BP1 Thr37/46), mTORC1 activity, PC3 cells; assay: mTOR target engagement assay, immunofluorescent cell-based, p4E-BP1 Thr37/46 readout (mTORC1 activity); settings: PC3 cells, read-out: p4E-BP1 Thr37/46 IC50
Summary of the method: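 Cell-based immunofluorescence in PC3 cells: serially diluted compounds (0.25% DMSO, 5% FBS) applied for ninety minutes at 37° C before fixation and overnight 4° C staining of p4E-BP1 Thr37/46. Untreated DMSO wells set maximal phosphorylation; IC50 obtained by logistic fitting.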

Row | Compound | IC50 ([1]; Homo sapiens, PC-3, Table 3-1) [nM] | IC50 ([2]; Homo sapiens, PC-3, Table 3-1) [nM] | IC50 ([1]; Table 3-1) [nM] | IC50 ([2]; Table 3-1) [nM]
1 | Cn1cc(-c2ccc(-c3cnn4c(N)c(S(C)(=O)=O)c([C@@H]5C[C@H]6CC[C@@H](C5)N6C(=O)c5nnc[nH]5)nc34)cn2)cn1 [Compound 3.106, ((1R,3s,5S)-3-(7-amino-3-(6-(1-methyl-1H-pyrazol-4-yl)pyridin-3-yl)-6-(methylsulfonyl)pyrazolo[1,5-a]pyrimidin-5-yl)-8-azabicyclo[3.2.1]octan-8-yl)(4H-1,2,4-triazol-3-yl)methanone] | 1 to 100 | 1 to 100 |  | 
2 | CS(=O)(=O)c1c([C@@H]2C[C@H]3CC[C@@H](C2)N3C(=O)c2nnc[nH]2)nc2c(-c3ccc(-c4c(F)cccc4F)nc3)cnn2c1N [Compound 3.107, ((1R,3s,5S)-3-(7-amino-3-(6-(2,6-difluorophenyl)pyridin-3-yl)-6-(methylsulfonyl)pyrazolo[1,5-a]pyrimidin-5-yl)-8-azabicyclo[3.2.1]octan-8-yl)(4H-1,2,4-triazol-3-yl)methanone] | 1 to 100 | 1 to 100 |  | 
3 | CS(=O)(=O)c1c([C@@H]2C[C@H]3CC[C@@H](C2)N3C(=O)c2nnc[nH]2)nc2c(-c3ccc(-c4ccc(F)cc4F)nc3)cnn2c1N [Compound 3.108, ((1R,3s,5S)-3-(7-amino-3-(6-(2,4-difluorophenyl)pyridin-3-yl)-6-(methylsulfonyl)pyrazolo[1,5-a]pyrimidin-5-yl)-8-azabicyclo[3.2.1]octan-8-yl)(4H-1,2,4-triazol-3-yl)methanone] | 1 to 100 | 1 to 100 |  | 
4 | CS(=O)(=O)c1c([C@@H]2C[C@H]3CC[C@@H](C2)N3C(=O)c2nnc[nH]2)nc2c(-c3ccc(-c4cn[nH]c4)nc3)cnn2c1N [Compound 3.109, ((1R,3s,5S)-3-(3-(6-(1H-pyrazol-4-yl)pyridin-3-yl)-7-amino-6-(methylsulfonyl)pyrazolo[1,5-a]pyrimidin-5-yl)-8-azabicyclo[3.2.1]octan-8-yl)(4H-1,2,4-triazol-3-yl)methanone] | 1000 to 10000 | 1000 to 10000 |  | 
5 | CS(=O)(=O)c1c([C@@H]2C[C@H]3CC[C@@H](C2)N3C(=O)c2nnc[nH]2)nc2c(-c3ccc(-c4ccc(C(F)(F)F)cc4F)nc3)cnn2c1N [Compound 3.110, ((1R,3s,5S)-3-(7-amino-3-(6-(2-fluoro-4-(trifluoromethyl)phenyl)pyridin-3-yl)-6-(methylsulfonyl)pyrazolo[1,5-a]pyrimidin-5-yl)-8-azabicyclo[3.2.1]octan-8-yl)(4H-1,2,4-triazol-3-yl)methanone] | 100 to 1000 | 1000 to 10000 |  | 
6 | Cn1cc(-c2cnn3c(N)c(S(C)(=O)=O)c([C@@H]4C[C@H]5CC[C@@H](C4)N5C(=O)c4nnc[nH]4)nc23)cn1 [Compound 3.111, ((1R,3s,5S)-3-(7-amino-3-(1-methyl-1H-pyrazol-4-yl)-6-(methylsulfonyl)pyrazolo[1,5-a]pyrimidin-5-yl)-8-azabicyclo[3.2.1]octan-8-yl)(4H-1,2,4-triazol-3-yl)methanone] | 1000 to 10000 | 1000 to 10000 |  | 
7 | Cn1cc(-c2cnn3c(N)c(S(C)(=O)=O)c([C@@H]4C[C@H]5CC[C@@H](C4)N5C(=O)CO)nc23)cn1 [Compound 3.112, 1-((1R,3s,5S)-3-(7-amino-3-(1-methyl-1H-pyrazol-4-yl)-6-(methylsulfonyl)pyrazolo[1,5-a]pyrimidin-5-yl)-8-azabicyclo[3.2.1]octan-8-yl)-2-hydroxyethanone] | > 10000 | 1000 to 10000 |  | 
8 | CS(=O)(=O)c1c([C@@H]2C[C@H]3CC[C@@H](C2)N3C(=O)c2nnc[nH]2)nc2c(-c3cn[nH]c3)cnn2c1N [Compound 3.113, ((1R,3s,5S)-3-(7-amino-6-(methylsulfonyl)-3-(1H-pyrazol-4-yl)pyrazolo[1,5-a]pyrimidin-5-yl)-8-azabicyclo[3.2.1]octan-8-yl)(4H-1,2,4-triazol-3-yl)methanone] | > 10000 | 1000 to 10000 |  | 
9 | CS(=O)(=O)c1c([C@@H]2C[C@H]3CC[C@@H](C2)N3C(=O)CO)nc2c(-c3cn[nH]c3)cnn2c1N [Compound 3.114, 1-((1R,3s,5S)-3-(7-amino-6-(methylsulfonyl)-3-(1H-pyrazol-4-yl)pyrazolo[1,5-a]pyrimidin-5-yl)-8-azabicyclo[3.2.1]octan-8-yl)-1-hydroxyethanone] | > 10000 | > 10000 |  | 
10 | Cc1nnc(C(=O)N2[C@@H]3CC[C@H]2C[C@H](c2nc4c(-c5cn[nH]c5)cnn4c(N)c2S(C)(=O)=O)C3)[nH]1 [Compound 3.115, ((1R,3s,5S)-3-(7-amino-6-(methylsulfonyl)-3-(1H-pyrazol-4-yl)pyrazolo[1,5-a]pyrimidin-5-yl)-8-azabicyclo[3.2.1]octan-8-yl)(5-methyl-4H-1,2,4-triazol-3-yl)methanone] | > 10000 | > 10000 |  | 
11 | CS(=O)(=O)c1c([C@@H]2C[C@H]3CC[C@@H](C2)N3C(=O)c2ccn[nH]2)nc2c(-c3cn[nH]c3)cnn2c1N [Compound 3.117, ((1R,3a,4S)-3-(7-amino-6-(methylsulfonyl)-3-(1H-pyrazol-4-yl)pyrazolo[1,5-a]pyrimidin-5-yl)-8-azabicyclo[3.2.1]octan-8-yl)(1H-pyrazol-5-yl)methanone] | > 10000 | > 10000 |  | 
12 | Cc1nnc(C(=O)N2[C@@H]3CC[C@H]2C[C@H](c2nc4c(-c5ccc(-c6ccc(F)cc6)nc5)cnn4c(N)c2S(C)(=O)=O)C3)[nH]1 [Compound 3.119, ((1R,3s,5S)-3-(7-amino-3-(6-(4-fuorophenyl)pyridin-3-yl)-6-(methylsulfonyl)pyrazolo[1,5-a]pyrimidin-5-yl)-8-azabicyclo[3.2.1]octan-8-yl)(5-methyl-4H-1,2,4-triazol-3-yl)methanone] |  |  | 1 to 100 | 1 to 100
13 | CS(=O)(=O)c1c([C@@H]2C[C@H]3CC[C@@H](C2)N3C(=O)c2cc(N)n[nH]2)nc2c(-c3ccc(-c4ccc(F)cc4)nc3)cnn2c1N [Compound 3.120, (3-amino-1H-pyrazol-5-yl)((1R,3s,5S)-3-(7-amino-3-(6-(4-fluorophenyl)pyridin-3-yl)-6-(methylsulfonyl)pyrazolo[1,5-a]pyrimidin-5-yl)-8-azabicyclo[3.2.1]octan-8-yl)methanone] |  |  | 1 to 100 | 1 to 100
14 | CS(=O)(=O)c1c([C@@H]2C[C@H]3CC[C@@H](C2)N3C(=O)c2nnc[nH]2)nc2c(-c3cnn(-c4ccccn4)c3)cnn2c1N [Compound 3.123, ((1R,3s,5S)-3-(7-amino-6-(methylsulfonyl)-3-(1-(pyridin-2-yl)-1H-pyrazol-4-yl)pyrazolo[1,5-a]pyrimidin-5-yl)-8-azabicyclo[3.2.1]octan-8-yl)(4H-1,2,4-triazol-3-yl)methanone] | 100 to 1000 | 100 to 1000 |  | 
15 | CS(=O)(=O)c1c([C@@H]2C[C@H]3CC[C@@H](C2)N3C(=O)CO)nc2c(-c3cnn(-c4ccccn4)c3)cnn2c1N [Compound 3.124, 1-((1R,3s,5S)-3-(7-amino-6-(methylsulfonyl)-3-(1-(pyridin-2-yl)-1H-pyrazol-4-yl)pyrazolo[1,5-a]pyrimidin-5-yl)-8-azabicyclo[3.2.1]octan-8-yl)-2-hydroxyethanone] | 100 to 1000 | 1000 to 10000 |  | 
16 | CS(=O)(=O)c1c([C@@H]2C[C@H]3CC[C@@H](C2)N3C(N)=O)nc2c(-c3ccc(-c4ccc(F)cc4F)nc3)cnn2c1N [Compound 3.125, (1R,3s,5S)-3-(7-amino-3-(6-(2,4-difluorophenyl)pyridin-3-yl)-6-(methylsulfonyl)pyrazolo[1,5-a]pyrimidin-5-yl)-8-azabicyclo[3.2.1]octane-8-carboxamide] | 1 to 100 | 100 to 1000 |  | 
17 | CS(=O)(=O)c1c([C@@H]2C[C@H]3CC[C@@H](C2)N3C(N)=O)nc2c(-c3ccc(-c4ccc(F)cc4)nc3)cnn2c1N [Compound 3.126, (1R,3s,5S)-3-(7-amino-3-(6-(4-fluorophenyl)pyridin-3-yl)-6-(methylsulfonyl)pyrazolo[1,5-a]pyrimidin-5-yl)-8-azabicyclo[3.2.1]octane-8-carboxamide] | 1 to 100 | 1 to 100 |  | 
18 | Cc1nnc(C(=O)N2[C@@H]3CC[C@H]2C[C@H](c2nc4c(-c5ccc(-c6ccc(F)cc6F)nc5)cnn4c(N)c2S(C)(=O)=O)C3)[nH]1 [Compound 3.127, ((1R,3s,5S)-3-(7-amino-3-(6-(2,4-difluorophenyl)pyridin-3-yl)-6-(methylsulfonyl)pyrazolo[1,5-a]pyrimidin-5-yl)-8-azabicyclo[3.2.1]octan-8-yl)(5-methyl-4H-1,2,4-triazol-3-yl)methanone] | 100 to 1000 | 1 to 100 |  | 
19 | CS(=O)(=O)c1c([C@@H]2C[C@H]3CC[C@@H](C2)N3C(=O)CO)nc2c(-c3ccc(-c4ccc(F)cc4F)nc3)cnn2c1N [Compound 3.128, 1-((1R,3s,5S)-3-(7-amino-3-(6-(2,4-difluorophenyl)pyridin-3-yl)-6-(methylsulfonyl)pyrazolo[1,5-a]pyrimidin-5-yl)-8-azabicyclo[3.2.1]octan-8-yl)-2-hydroxyethanone] | 100 to 1000 | 100 to 1000 |  | 
20 | CS(=O)(=O)c1c([C@@H]2C[C@H]3CC[C@@H](C2)N3C(=O)c2cc(N)n[nH]2)nc2c(-c3ccc(-c4ccc(F)cc4F)nc3)cnn2c1N [Compound 3.129, (3-amino-1H-pyrazol-5-yl)((1R,3s,5S)-3-(7-amino-3-(6-(2,4-difluorophenyl)pyridin-3-yl)-6-(methylsulfonyl)pyrazolo[1,5-a]pyrimidin-5-yl)-8-azabicyclo[3.2.1]octan-8-yl)methanone] | 1 to 100 | 1 to 100 |  | 

Source: patent US9227971B2, “Pyrazolo[1,5-a]pyrimidine compounds as mTOR inhibitors” (Merck Sharp & Dohme Corp., priority 2010, dated 2016)
